Experimental data as given in article PMC4767720 (Drugs in R&D, 2016).
Blank lines part the entries; values can stand above or below the compound they belong to.

Tests used:
[1] = Ketoconazole interaction study, plasma pharmacokinetics; format: in vivo, human
[2] = Safety and tolerability assessments in the three clinical studies; format: in vivo, human
syk = details: statement of the introduction, no reference given; cited from earlier work
[3] = Microsomal stability of R406 in human hepatic microsomes; format: in vitro ADME; details: R406 1 μM, 0.1 mg microsomal protein, NADPH 1 mM, 37 °C, pH 7.4
[4] = Verapamil interaction study, plasma pharmacokinetics; format: in vivo, human
[5] = Rifampicin interaction study, plasma pharmacokinetics; format: in vivo, human
[6] = 10 μM R406, 1 mg protein/mL, 15 min
[7] = R406, 80 mg fostamatinib + ketoconazole (P2), n=8
[8] = R406, 80 mg fostamatinib alone (P1), n=8
[9] = R406, 80 mg fostamatinib, ketoconazole 200 mg twice daily
[10] = R406 in plasma, single oral 80 mg fostamatinib alone (P1), n=8
[11] = R406, 150 mg fostamatinib alone (P1), n=15
[12] = R406 in plasma, single oral 150 mg fostamatinib alone (P1), n=15
[13] = R406, 150 mg fostamatinib + rifampicin (P2), n=15

SMILES: COc1cc(Nc2ncc(F)c(Nc3ccc4c(n3)N(COP(=O)(O)O)C(=O)C(C)(C)O4)n2)cc(OC)c1OC [Fostamatinib]
plasma levels of R788 ([1]; 80 mg fostamatinib with ketoconazole-placebo or with ketoconazole): negligible
highest plasma concentration of R788 obtained in any subject ([1]; 80 mg fostamatinib with placebo or ketoconazole): < 7 ng/mL
time post-dose beyond which no quantifiable R788 (above 0.5 ng/mL) was obtained ([1]; any subject): 2 h
tolerability ([2]; all three clinical studies, alone and in combination with a CYP3A4 inducer/inhibitor): well tolerated
deaths, serious AEs, withdrawals due to AEs, severe AEs ([2]; any of the three studies): no deaths, serious AEs, withdrawals due to AEs or severe AEs
treatment-emergent AEs in subjects receiving fostamatinib and ketoconazole ([2]; ketoconazole interaction study): No treatment-emergent AEs
total AEs reported ([2]; ketoconazole interaction study, all treatments, N=8): eight
total AEs recorded ([2]; rifampicin interaction study, all arms, all mild): four
AEs considered related to administration of fostamatinib ([2]; verapamil interaction study): None
total AEs reported ([2]; verapamil interaction study, one AE per treatment arm, one mild, two moderate): three
activity against syk compared with R406 (syk): much less active

SMILES: COc1cc(Nc2ncc(F)c(Nc3ccc4c(n3)NC(=O)C(C)(C)O4)n2)cc(OC)c1O [R529]
activity against syk compared with R406 (syk): much less active

microsomal half-life [3]: 0.407 h
increase in R406 exposure with ketoconazole co-administration ([1]; 80 mg fostamatinib, ketoconazole 200 mg twice daily): 2 fold
tmax, median [1, 7]: 2.00 h
t½, geometric mean (GCV %) [1, 7]: 17.7 (31.9) h
tmax, median [1, 8]: 1.25 h
t½, geometric mean (GCV %) [1, 8]: 13.6 (32.1) h
average increase in AUC0–∞ after co-administration of ketoconazole [1, 9]: 102%
average increase in Cmax after co-administration of ketoconazole [1, 9]: 37%
average t½ ([1]; R406, fostamatinib alone): 14.2 h
tmax (value of the text, not the median) ([1]; R406, fostamatinib plus ketoconazole): 1.69 h
average t½ ([1]; R406, fostamatinib with ketoconazole co-administration): 18.4 h
AUC0–∞, geometric mean (GCV %) [1, 10]: 3690 (19.9) ng·h/mL
Cmax, geometric mean (GCV %) [1, 10]: 325 (13.7) ng/mL
effect of verapamil co-administration on R406 Cmax ([4]; 150 mg fostamatinib): no consistent effect
effect of verapamil on R406 tmax ([4]; 150 mg fostamatinib): no consistent effect
subjects with higher R406 AUC after verapamil co-administration ([4]; 150 mg fostamatinib, verapamil 80 mg three times daily): 10 of the 13
t½, geometric mean (GCV %) ([4]; R406, 150 mg fostamatinib + verapamil (P2), n=13): 19.1 (51.1) h
tmax, median ([4]; R406, 150 mg fostamatinib + verapamil (P2), n=14): 1.50 h
tmax, median [4, 11]: 1.48 h
t½, geometric mean (GCV %) [4, 11]: 13.5 (28.4) h
AUC0–∞, geometric mean (GCV %) [4, 12]: 6380 (36.1) ng·h/mL
Cmax, geometric mean (GCV %) [4, 12]: 588 (45.7) ng/mL
reduction in R406 Cmax with rifampicin co-administration ([5]; 150 mg fostamatinib, rifampicin 600 mg once daily): ~60%
effect of rifampicin co-administration on tmax ([5]; R406, 150 mg fostamatinib): no consistent effect
tmax, median [5, 13]: 1.00 h
t½, geometric mean (GCV %) [5, 13]: 10.8 (38.6) h
tmax, median [5, 11]: 2.00 h
t½, geometric mean (GCV %) [5, 11]: 15.0 (30.3) h
AUC0–∞, geometric mean (GCV %) [5, 12]: 6540 (48.5) ng·h/mL
Cmax, geometric mean (GCV %) [5, 12]: 573 (58.7) ng/mL
major metabolite [6]: para-O-demethylated R406, R529
SMILES: COc1cc(Nc2ncc(F)c(Nc3ccc4c(n3)NC(=O)C(C)(C)O4)n2)cc(OC)c1OC [R406]
